Measured values taken from patent US12653190B2, “Heteroaryl-triazole compounds as pesticides” (Bayer Aktiengesellschaft, priority 2020, dated 2026).

Legend:
Assay type in all cases: in vivo
[1] = system: adult unfed cat fleas (Ctenocephalides felis); experiment: Ctenocephalides felis oral test; settings: 48 h, 100 ppm in cattle blood, after 2 days
Description: Ctenocephalides felis—Oral Test
(§1) • Solvent: dimethyl sulfoxide
To produce a suitable preparation of active compound, 10 mg of active compound are dissolved in 0.5 mL solvent, and the concentrate is diluted with cattle blood to the desired concentration.
Approximately 20 adult unfed cat fleas (Ctenocephalides felts) are placed in flea chambers. The blood chamber, sealed with parafilm on the bottom, are filled with cattle blood supplied with compound solution and placed on the gauze covered top of the flea chamber, so that the fleas are able to suck the blood. The blood chamber is heated to 37° C. whereas the flea chamber is kept at room temperature.
After 2 days mortality in % is determined. 100% means all the fleas have been killed; 0% means none of the fleas have been killed.

[2] = system: fall armyworm larvae (Spodoptera frugiperda); experiment: Spodoptera frugiperda spray test; settings: in Zea mays, 168 h
Description: Spodoptera frugiperda—Spray Test
(§2) • Solvent: 78.0 parts by weight acetone • 1.5 parts by weight dimethylformamide • Emulsifier: alkylarylpolyglycol ether
(§3) To produce a suitable preparation of active compound, 1 part by weight of active compound is mixed with the stated amount of solvents and is diluted with water, containing an emulsifier concentration of 1000 ppm, to the desired concentration. Further test concentrations are prepared by dilution with emulsifier containing water.
Maize (Zea mays) leaf sections are sprayed with a preparation of the active ingredient of the desired concentration. Once dry, the leaf sections are infested with fall armyworm larvae (Spodoptera frugiperda). After 7 days mortality in % is determined. 100% means all caterpillars have been killed and 0% means none of the caterpillars have been killed.

[3] = system: adult engorged female ticks (Rhipicephalus microplus); experiment: Rhipicephalus (Boophilus) microplus injection test; settings: 168 h, egg deposition monitored after 7 days, read-out: efficacy (infertile eggs); for pest or weed control at 4 µg/tick: 4 μg/tick injected; for pest or weed control at 20 µg/tick: 20 μg/tick injected
Description: Rhipicephalus (Boophilus) microplus—Iniectiontest
as §1
To produce a suitable preparation of active compound, 10 mg of active compound are dissolved in 0.5 mL solvent, and the concentrate is diluted with solvent to the desired concentration.
Five adult engorged female ticks (Rhipicephalus microplus) are injected with 1 μL compound solution into the abdomen. The ticks are transferred into replica plates and incubated in a climate chamber.
After 7 days egg deposition of fertile eggs is monitored. Eggs where fertility is not visible are stored in a climate chamber till hatching after about 42 days. An efficacy of 100% means all eggs are infertile; 0% means all eggs are fertile.

[4] = system: green peach aphid (Myzus persicae); experiment: Myzus persicae spray test; settings: foliar, 120 h, after 5 days, Chinese cabbage leaf disks
Description: Myzus persicae—Spray Test
as §2, §3
Chinese cabbage (Brassica pekinensis) leaf disks infected with all instars of the green peach aphid (Myzus persicae), are sprayed with a preparation of the active ingredient of the desired concentration.
After 5 days mortality in % is determined. 100% means all aphids have been killed and 0% means none of the aphids have been killed.

[5] = system: larvae of the banded cucumber beetle (Diabrotica balteata); experiment: Diabrotica balteata spray test; settings: 168 h, after 7 days, wheat seeds, read-out: efficacy (seedling growth); for pest or weed control at 32 µg/disc, 100 g/ha: 100 g/ha (=32 μg/well)
Description: Diabrotica balteata—Spray Test
(§4) • Solvent: 78.0 parts by weight of acetone • 1.5 parts by weight of dimethylformamide • Emulsifier: alkylarylpolyglycol ether
as §3, with “solvent,” for “solvents”, “and the concentrate” for “and”
Soaked wheat seeds (Triticum aestivum) are placed in a multiple well plate filled with agar and some water and are incubated for 1 day to germinate (5 seeds per well). The germinated wheat seeds are sprayed with a test solution containing the desired concentration of the active ingredient. Afterwards each unit is infected with 10-20 larvae of the banded cucumber beetle (Diabrotica balteata).
After 7 days efficacy in % is determined. 100% means all the seedlings have grown up like in the untreated, uninfected control; 0% means none of the seedlings have grown.

[6] = system: larvae of the southern green stink bug (Nezara viridula); experiment: Nezara viridula spray test; settings: 96 h, after 4 days, barley plants
Description: Nezara viridula—Spray Test
as §4
as §3, with “solvent,” for “solvents”, “and the concentrate” for “and”
Barley plants (Hordeum vulgare) are sprayed with a test solution containing the desired concentration of the active ingredient and are infested with larvae of the southern green stink bug (Nezara viridula).
After 4 days mortality in % is determined. 100% means all the stink bugs have been killed; 0% means none of the stink bugs have been killed.

[7] = system: Rhipicephalus (Boophilus) microplus larvae (strain Parkhurst, resistant against synthetic pyrethroids); experiment: Rhipicephalus (Boophilus) microplus in-vitro contact test, larval cattle tick; settings: 5 μg/cm^2 (=500 g/ha), after 48 hours, read-out: efficacy (larvae dead or moribund)
Description: Rhipicephalus (Boophilus) microplus—In-Vitro Contact Tests Larval Cattle Tick (Strain Parkhurst, Resistant Against Synthetic Pyrethroids)
(§5) 9 mg compound is solved in 1 mL acetone and diluted with acetone to the desired concentration. 250 μL of the test solution is filled in 25 mL glass test tubes and homogeneously distributed on the inner walls by rotation and tilting on a shaking device (2 h at 30 rpm). With a compound concentration of 900 ppm, an inner surface of 44.7 cm^2 and a homogeneous distribution, a dose of 5 μg/cm^2 is achieved.
After the solvent has evaporated, each test tube is filled with 20-50 cattle tick larvae (Rhipicephalus microplus), closed with a perforated lid and incubated in a horizontal position at 85% relative humidity and 27° C. in an incubator. After 48 hours efficacy is determined. The larvae are patted on the ground of the tubes and negative geotactic behavior is recorded.
An efficacy of 100% means all larvae are dead or moribund; 0% means no larvae are dead or moribund.

[8] = system: adult brown dog ticks (Rhipicephalus sanguineus); experiment: Rhipicephalus sanguineus in-vitro contact test, adult brown dog ticks; settings: 5 μg/cm^2 (=500 g/ha), after 48 hours, read-out: efficacy (ticks dead or moribund)
Description: Rhipicephalus sanguineus—In-Vitro Contact Tests with Adult Brown Dog Ticks
as §5
(§6) After the solvent has evaporated, each test tube is filled with 5-10 adult brown dog ticks (Rhipicephalus sanguineus), closed with a perforated lid and incubated in a lying position at room temperature and relative humidity. After 48 hours efficacy is determined. The ticks are patted on the ground of the tubes and are incubated on a heating plate at 45-50° C. for at most 5 minutes Immotile or uncoordinated moving ticks, which are not able to escape the heat by climbing upwards, are marked as dead or moribund.
An efficacy of 100% means all ticks are dead or moribund; 0% means no ticks are dead or moribund.

[9] = system: adult cat fleas (Ctenocephalides felis); experiment: Ctenocephalides felis in-vitro contact test, adult cat flea; settings: 5 μg/cm^2 (=500 g/ha), after 48 hours, read-out: efficacy (fleas dead or moribund)
Description: Ctenocephalides felis—In-Vitro Contact Tests Adult Cat Flea
as §5
as §6, with “cat fleas (Ctenocephalides felis),” for “brown dog ticks (Rhipicephalus sanguineus),”, “fleas” for “ticks”, “fleas,” for “ticks,”
An efficacy of 100% means all fleas are dead or moribund; 0% means no fleas are dead or moribund.

| Compound | mortality at 100 ppm [1] [%] | pest or weed control at 4 µg/tick [3] [%] | pest or weed control at 20 µg/tick [3] [%] | pest or weed control at 32 µg/disc, 100 g/ha [5] [%] | mortality at 100 g/ha [2] [%] | pest or weed control at 5 µg/cm2, 5 µg/cm2 [7] [%] | pest or weed control at 5 µg/cm2, 5 µg/cm2 [8] [%] | pest or weed control at 5 µg/cm2, 5 µg/cm2 [9] [%] | further results |
| --- | --- | --- | --- | --- | --- | --- | --- | --- | --- |
| Cc1cc(OCC2CC2)cc(C(=O)N[C@@H](C)c2ncnn2-c2ccc(C#N)cn2)c1 [Example I-3, N-{(1S)-1-[1-(5-Cyanopyridin-2-yl)-1H-1,2,4-triazol-5-yl]ethyl}-3-(cyclopropylmethoxy)-5-methylbenzamide] | 100 | 100 | 100 | – | – | – | – | – | mortality at 500 g/ha [2]: 100% |
| C[C@H](NC(=O)c1cc(Br)cc(C(F)(F)C2CC2)c1)c1ncnn1-c1cnc(C#N)cn1 [Example I-59] | – | – | – | 100 | 100 | 100 | 100 | 80 | mortality at 100 g/ha [4]: 90%; mortality at 100 g/ha [6]: 100%; mortality at 500 g/ha [6]: 100% |
| Cc1cc(OC2CCC2)cc(C(=O)N[C@@H](C)c2ncnn2-c2ccc(C#N)cn2)c1 [Example I-5, N-{(1S)-1-[1-(5-Cyanopyridin-2-yl)-1H-1,2,4-triazol-5-yl]ethyl}-3-(cyclobutyloxy)-5-methylbenzamide] | 100 | – | 100 | – | – | – | – | – | pest or weed control at 160 µg/disc, 500 g/ha ([5]; 500 g/ha (=160 μg/well)): 100% |
| Cc1nc([C@H](C)NC(=O)c2cc(OC(C)c3ccc(Cl)cc3)cc(C(F)(F)F)c2)n(-c2ccc(C#N)cn2)n1 (stereo partly drawn) [Example I-15, 3-[1-(4-Chlorophenyl)ethoxy]-N-{(1S)-1-[1-(5-cyanopyridin-2-yl)-3-methyl-1H-1,2,4-triazol-5-yl]ethyl}-5-(trifluoromethyl)benzamide] | – | 100 | 100 | 100 | – | – | 80 | – | – |
| C[C@H](NC(=O)c1cc(C(F)(F)F)cc(C(C)(C)C#N)c1)c1ncnn1-c1cnc(C#N)cn1 [Example I-58] | – | – | – | 100 | 100 | 100 | 80 | 100 | mortality at 100 g/ha [4]: 90%; mortality at 100 g/ha [6]: 100%; mortality at 500 g/ha [6]: 100% |
| C[C@H](NC(=O)c1cccc(CC#N)c1)c1ncnn1-c1ccc(C#N)cn1 [Example I-2] | 100 | 100 | 100 | – | – | 80 | – | – | – |
| C[C@H](NC(=O)c1cc(Br)cc(OC(C)(C)C#N)c1)c1ncnn1-c1ncc(C#N)s1 [Example I-60] | – | – | – | 100 | 100 | 100 | – | 80 | – |
| Cc1nc([C@H](C)NC(=O)c2cc(OCC3CCOCC3)cc(C(F)(F)F)c2)n(-c2ccc(C#N)cn2)n1 [Example I-19, N-{(1S)-1-[1-(5-Cyanopyridin-2-yl)-3-methyl-1H-1,2,4-triazol-5-yl]ethyl}-3-(tetrahydro-2H-pyran-4-ylmethoxy)-5-(trifluoromethyl)benzamide] | 80 | 100 | – | – | – | 100 | – | – | – |
| Cc1nc([C@H](C)NC(=O)c2cc(OC3CCOCC3)cc(C(F)(F)F)c2)n(-c2ccc(C#N)cn2)n1 [Example I-21, N-{(1S)-1-[1-(5-Cyanopyridin-2-yl)-3-methyl-1H-1,2,4-triazol-5-yl]ethyl}-3-(tetrahydro-2H-pyran-4-yloxy)-5-(trifluoromethyl)benzamide] | – | – | – | – | 83 | 100 | 80 | – | – |
| CC(C#N)c1cccc(C(=O)N[C@@H](C)c2ncnn2-c2ccc(C#N)cn2)c1 (some centres unmarked) [Example I-1] | 100 | – | 100 | – | – | 90 | – | – | – |
